Paper PMC11206507, “Unraveling the Impact of Six Pentacyclic Triterpenes Regulating Metabolic Pathways on Lung Carcinoma Cells” (Pharmaceuticals, 2024)

Legend:
[1] = MTS/PMS cell viability, MRC5; assay type: cell-based; details: human, MRC5 normal lung fibroblast cells
Experimental: The 50% inhibitory concentration (IC50) of some of these triterpenes in A549 NSCLC cells were previously determined by us. A similar procedure was performed to determine the IC50 of the triterpenes in a normal lung fibroblast cell line (MRC5). In brief, the A549 and MRC5 cells were seeded into 96-well plates at a density of 1 × 10^5 cells/mL in supplemented DMEM medium. The cells were treated with specific concentrations (A549: 5, 10, 25, 50, 75, 100, 125,150, 175, 200 μM; MRC5: 5, 10, 25, 50, 75, 100 μM) of the triterpenes and incubated for 24 h. Then, 10 uL of the MTS reagent from the CellTiter 96® Aqueous Non-Radioactive Cell Proliferation Assay (Promega G5421) was added to each well. Then, we incubated the plates at 37 °C and in a 5% CO2 atmosphere for 1 h. After incubation, the absorbance was measured at 492 nm (n = 8) in a microplate reader spectrophotometer (Thermoscientific Multiskan FC). The cell viability was calculated as follows:% Viability = (sample absorbance − sample media absorbance)/(untreated cells’ absorbance − untreated cells’ media absorbance) × 100
The cell viability data were presented by plotting the values with an average of eight measurements for each treatment (mean ± SD) in at least three independent experiments. The IC50 values were calculated with the GraphPad Prism 9 software (Prism 9; GraphPad by Dotmatics, San Diego, CA, USA) using the dose–response curve. The data were normalized by the non-linear fit of the log (drug inhibition) vs. normalized response variable slope to obtain the best fit IC50 and R-squared values.

A549 cells [2] = experiment: Externalization of phosphatidylserine, Annexin V confocal microscopy; assay type: cell-based, human; details: A549, IC25, 24 h
Experimental: Early apoptotic activity was evaluated by the externalization of PS using the Alexa Fluor® 488 Annexin V Apoptosis Reagent (Molecular Probes™) and NucBlue ReadyProbes Reagent™ (Thermo Fisher Scientific). For this assay, A549 cells were seeded in 8-well cover slip plates with a density of 1 × 10^5 cells/mL for 24 h in supplemented DMEM. Then, the A549 cells were incubated with the triterpenes (IC25) and controls for 24 h. Afterward, the cells were washed with 1× PBS and incubated with NucBlue (DAPI analog) and Annexin V for 15 min in the dark. The cells were fixed with 3.7% formaldehyde solution for 15 min, washed three times with 1× PBS, and covered with glycerol before visualization. The plates were observed by confocal microscopy using a Nikon Eclipse Ti microscope (Nikon Instruments Inc., El Segundo, CA, USA), utilizing a 20× oil objective with filter sets compatible with DAPI (Ex/Em = 405/460 nm) and Annexin V Alexa Fluor (Ex/Em = 488/525 nm). The fluorescence intensity was analyzed using the NIS-Elements Viewer program (version 5.21 64-bit) (Nikon Instruments Inc.). Each sample was analyzed in duplicate in two independent experiments. The fluorescence intensity was adjusted using untreated cells for each fluorescence channel (green and blue). Subsequently, this calibrated intensity was applied for the analysis of all treated cells.

A549 cells [3] = experiment: Mitochondrial ROS production assay (DHE, flow cytometry); assay type: cell-based, human; details: A549, IC25, 24 h; for Amount of mROS, on average of the three named triterpenes, compared to the untreated cells: group average
Experimental: We used flow cytometry to analyze several cellular mechanistic pathways in A549 cells after incubation with the triterpenes. In general, the cells were seeded in a 6-well plate at a density of 1 × 10^6 cells/mL and incubated for 24 h in supplemented DMEM. After 24 h, the A549 cells were treated with the triterpenes, following each manufacturer’s protocol. All of the following experiments were performed in a Muse® Cell Analyzer (EMD Millipore Corporation, Temecula, CA). The instrument was calibrated before each assay using the Muse® System Check Kit (Luminex MCH100101, Luminex Corporation). Each assay was run at least in two independent experiments. For each experiment, all samples were analyzed in triplicate in the instrument and the capillary line was washed after each sample run to avoid artifacts. In addition, to address the issue of cell doublets, we used the Muse® Cell Dispersal Reagent (Luminex Corporation) in all experiments. The concentration of the triterpenes in each assay was selected depending on the cellular concentration necessary to generate the gain signal in the instrument. This means that we attempted to select concentrations avoiding excessive cytotoxicity to accurately determine the respective signal from each assay.
The production of reactive oxygen species (ROS) by mitochondria was determined using the Oxidative Stress Kit (Luminex MCH100111, Luminex Corporation). After the A549 cells were treated with the triterpenes (IC25) for 24 h, the cells were scraped and centrifuged. For ROS, the cell pellet was incubated with dihydroethidium (DHE) dye for 1 h at 37 °C.

PDL1 gene = experiment: RT-qPCR gene expression of PDL1; assay type: cell-based, human; details: for PDL1 gene expression (in words): A549, IC25 (CisPt 25 μM), 24 h
Experimental: A549 cells were seeded into 6-well plates at a density of 1 × 10^6 cells/mL in supplemented DMEM. The cells were incubated with the triterpenes (IC25) for 24 h. Total RNA was extracted from the cells using the TRIzol reagent (Invitrogen Corporation, Carlsbad, CA, USA) according to the manufacturer’s instructions. The purity and concentration of RNA were assessed using a NanoDrop spectrophotometer (Thermo Fisher Scientific). cDNA was synthesized using the High-Capacity cDNA Reverse Transcription Kit (Applied Biosystems) according to the manufacturer’s instructions.
RT-qPCR was performed on a StepOnePlus® Real-Time PCR System (Thermo Fisher Scientific) using TaqMan Gene Expression Assays (Applied Biosystems) for PDL1 (CD274; Assay ID: Hs01125297_m1), ribonucleotide reductase (RR) M1 (Assay ID: Hs01040697_m1), and STAT3 (Assay ID: Hs01047586_g1). Each reaction consisted of 10 ng of cDNA, TaqMan Gene Expression Master Mix (Applied Biosystems), and TaqMan probes. The PCR cycling conditions were as follows: 95 °C for 10 min, followed by 40 cycles of 95 °C for 15 s and 60 °C for 60 s. The relative gene expression levels were calculated using the ΔΔCt method. GAPDH (Assay ID: Hs02758991_g1) was used as the endogenous control for normalization.
All RT-qPCR experiments were performed at least in triplicate. All data were expressed by plotting values with an average of four measurements for each treatment condition as the mean ± SD and analyzed with the software GraphPad Prism 9. Statistical analysis was performed using one-way analysis of variance (ANOVA) to compare the mean value of each treated type of cells versus the control (untreated cells). The statistical significance defined by the software for p values was **** < 0.0001, *** from 0.001 to 0.0001, ** from 0.001 to 0.01, * from 0.01 to 0.05, and non-significant (ns) ≥ 0.05.

SMILES | IC50 at 24 h [1] [µM] | Early apoptosis, externalization of PS (in words, qualitative) (A549 cells [2]) | Amount of mROS, on average of the three named triterpenes, compared to the untreated cells (A549 cells [3]) [%] | PDL1 gene expression (in words) (PDL1 gene) | PDL1 downregulation (PDL1 gene; summary, NSCLC A549 cells) | mROS production (in words) (A549 cells [3]; vs negative control)
C[C@H]1[C@H](C)CC[C@]2(C(=O)O)CC[C@]3(C)C(=CC[C@@H]4[C@@]5(C)CC[C@H](O)C(C)(C)[C@@H]5CC[C@]43C)[C@H]12 [UrA, ursolic acid] | 13 ± 1 | strongest activation |  |  |  | 
C=C(C)[C@@H]1CC[C@]2(C)CC[C@]3(C)[C@H](CC[C@@H]4[C@@]5(C)CC[C@H](O)C(C)(C)[C@@H]5CC[C@]43C)[C@@H]12 [Lupe, lupeol] | 101 ± 8 | lowest | 26.2 |  |  | 
C=C(C)[C@@H]1CC[C@]2(CO)CC[C@]3(C)[C@H](CC[C@@H]4[C@@]5(C)CC[C@H](O)C(C)(C)[C@@H]5CC[C@]43C)[C@@H]12 [Betu, betulin] | 16 ± 0.5 | strongest activation |  | did not inhibit | - | 
C=C(C)[C@@H]1CC[C@]2(C(=O)O)CC[C@]3(C)[C@H](CC[C@@H]4[C@@]5(C)CC[C@H](O)C(C)(C)[C@@H]5CC[C@]43C)[C@@H]12 [BeA, betulinic acid] | 19 ± 0.4 | lowest | 26.2 | superior in suppressing both genes |  | largest level of mROS
